Data set [1] has as its system MCF-7 (human breast adenocarcinoma cell line). In words: MTT cytotoxicity assay, MCF-7. Format: cell-based. To be noted: Homo sapiens, MCF7, MTT assay, mean of four independent studies; read-out: IC50 against MCF-7. As for the experimental part:
(§1) In this study, all compounds were tested for antiproliferative activity using an MTT assay with doxorubicin as a control against MCF-7 (human breast adenocarcinoma cell line), A549 (lung carcinoma cell line), HepG2 (human liver carcinoma cell line), HeLa (cervical cell line), and C6 (rat glioma cell line) cell lines. Table 1 summarizes the results of four independent studies as the mean IC50 value (half-maximum inhibitory concentration).
(§2) MTT tests were used to screen the anticancer activities of compounds 5a–i. The MTT assays were carried out as stated previously.[16],[17] The anticancer activity of the final compounds was tested on […]: A549 (lung carcinoma cell line), HeLa (cervical cell line), MCF-7 (human breast adenocarcinoma cell line), HepG2 (human liver carcinoma cell line), C6 (rat glioma cell line), and NIH3T3 […] (mouse embryo fibroblast cell line). In the MTT experiments, doxorubicin and Hoechst 33342 were employed as reference drugs.
In general terms: Tetrazolium dyes change colour on reduction, which living cells bring about.

In data set [2] the test system is HepG2 (human liver carcinoma cell line). In words: MTT cytotoxicity assay, HepG2. It is filed as cell-based. The following applies: mean of four independent studies, read-out: IC50 against HepG2. The procedure:
as §1, §2

Data set [3] has as its system C6 (rat glioma cell line). The data set can be described thus: MTT cytotoxicity assay, C6. It is filed as cell-based. To be noted: mean of four independent studies, read-out: IC50 against C6. The procedure:
as §1, §2

Data set [4] relates to HeLa (cervical cell line). In words: MTT cytotoxicity assay, HeLa. Format: cell-based. The following applies: Homo sapiens, mean of four independent studies, read-out: IC50 against HeLa. The procedure: as §1, §2
In data set [5] the test system is A549 (lung carcinoma cell line). The data set can be described thus: MTT cytotoxicity assay, A549. It is filed as cell-based. To be noted: Homo sapiens, mean of four independent studies, read-out: IC50 against A549. The procedure: as §1, §2
Data set [6] has as its target aromatase. The following applies: 3D-QSAR data set, IC50 converted to pIC50; SI reference list; cited from earlier work.

The values below come from article PMC9097188, “Design, Synthesis, and Molecular Modeling Studies of a Novel Benzimidazole as an Aromatase Inhibitor” (ACS Omega, 2022).

Each structure is given as a SMILES string.

One may read the melting point as the temperature, or range, at which the solid turns liquid. What is called IC50 is the concentration that inhibits the measured activity by half. Molecule `COc1ccc(-c2nc3ccc(-c4nnc(SCC(=O)N5CCN(Cc6ccc(Cl)cc6)CC5)o4)cc3[nH]2)cc1` [5e, 2-((5-(2-(4-Methoxyphenyl)-1H-benzo[d]imidazol-6-yl)-1,3,4-oxadiazol-2-yl)thio)-1-(4-(4-chlorobenzyl)piperazin-1-yl)ethan-1-one] registered a melting point of 138.2 to 140.1 °C. Moreover, the IC50 in data set [1] is 45.6 ± 2.11 µM. Besides, the IC50 in data set [2] is ≥ 100 µM. Moreover, the IC50 in data set [3] was ≥ 100 µM. In addition, the half-maximal inhibitory concentration (IC50) in data set [4] is ≥ 100 µM. The 50% inhibitory concentration (IC50) in data set [5] is ≥ 100 µM.

`CCOc1ccc(-c2nc3ccc(-c4nnc(SCC(=O)N5CCN(Cc6ccc(Cl)cc6)CC5)o4)cc3[nH]2)cc1` [5h, 2-((5-(2-(4-Ethoxyphenyl)-1H-benzo[d]imidazol-6-yl)-1,3,4-oxadiazol-2-yl)thio)-1-(4-(4-chlorobenzyl)piperazin-1-yl)ethan-1-one]: the melting point was in the range of 177.5 to 178.4 °C. Also, the IC50 in data set [1] is ≥ 100 µM. Further, the IC50 in data set [2] was ≥ 100 µM. Besides, the IC50 in data set [3] is ≥ 100 µM. Moreover, in data set [4], the IC50 is ≥ 100 µM. Moreover, the IC50 in data set [5] was ≥ 100 µM.

Molecule `CCOc1ccc(-c2nc3ccc(-c4nnc(SCC(=O)N5CCN(Cc6ccccc6)CC5)o4)cc3[nH]2)cc1` [5g, 2-((5-(2-(4-Ethoxyphenyl)-1H-benzo[d]imidazol-6-yl)-1,3,4-oxadiazol-2-yl)thio)-1-(4-benzylpiperazin-1-yl)ethan-1-one] gave a melting point of 184.4 to 186.8 °C. The half-maximal inhibitory concentration (IC50) in data set [1] was ≥ 100 µM. Also, in data set [2], the IC50 is ≥ 100 µM. The IC50 in data set [3] was ≥ 100 µM. The IC50 in data set [4] is ≥ 100 µM. Besides, the IC50 in data set [5] is ≥ 100 µM.

`COc1ccc(-c2nc3ccc(-c4nnc(SCC(=O)N5CCN(Cc6ccc(F)cc6)CC5)o4)cc3[nH]2)cc1` [5f, 2-((5-(2-(4-Methoxyphenyl)-1H-benzo[d]imidazol-6-yl)-1,3,4-oxadiazol-2-yl)thio)-1-(4-(4-fluorobenzyl)piperazin-1-yl)ethan-1-one] showed a melting point of 133.4 to 135.8 °C. In data set [1], the IC50 is ≥ 100 µM. Also, the IC50 in data set [2] is ≥ 100 µM. Moreover, the IC50 in data set [3] is ≥ 100 µM. Moreover, the IC50 in data set [4] was ≥ 100 µM. For the same molecule, in data set [5], the IC50 was ≥ 100 µM.

As for `Fc1ccc(C2=Nn3c(nnc3-c3ccc(-c4nc5ccccc5[nH]4)cc3)SC2)cc1` [compound 101], in data set [6], the “Experimental pIC50” value is given as 5.765.

Turning to `Fc1ccc(C2=Nn3c(nnc3-c3ccc(-c4nc5ccc(Cl)cc5[nH]4)cc3)SC2)cc1` [compound 102], the “Experimental pIC50” value in data set [6] is listed as 5.643.

For `O=[N+]([O-])c1cccc(S(=O)(=O)NCCc2c(C(c3ccccc3O)c3[nH]c4ccccc4c3CCNS(=O)(=O)c3cccc([N+](=O)[O-])c3)[nH]c3ccccc23)c1` [compound 54], the “Experimental pIC50” value in data set [6] is recorded as 5.770.

For `N#Cc1ccc(C(c2[nH]c3ccccc3c2CCNS(=O)(=O)c2ccc(C(F)(F)F)cc2)c2[nH]c3ccccc3c2CCNS(=O)(=O)c2ccc(C(F)(F)F)cc2)cc1` [compound 37], in data set [6], the “Experimental pIC50” value is 4.815.

`COc1ccc(-c2nc3ccc(-c4nnc(SCC(=O)N5CCN(Cc6ccccc6)CC5)o4)cc3[nH]2)cc1` [5d, 2-((5-(2-(4-Methoxyphenyl)-1H-benzo[d]imidazol-6-yl)-1,3,4-oxadiazol-2-yl)thio)-1-(4-benzylpiperazin-1-yl)ethan-1-one] registered a melting point of 172.6 to 174.8 °C. In data set [1], the IC50 is ≥ 100 µM. Further, the IC50 in data set [2] is ≥ 100 µM. In addition, the IC50 in data set [3] turned out to be 88.5 ± 3.41 µM. Moreover, the IC50 in data set [4] was ≥ 100 µM. Further, the IC50 in data set [5] is ≥ 100 µM.

In the case of `N#Cc1ccc(-n2cc(Cn3ccnc3)c3ccccc32)cc1` [compound 116], the “Experimental pIC50” value in data set [6] is reported as 5.851.

In the case of `COc1cccc2c1C(=O)c1c(O)c3c(c(O)c1C2=O)C[C@@](O)(C(=O)CO)C[C@@H]3O[C@H]1C[C@H](N)[C@H](O)[C@H](C)O1` [Dox., doxorubicin], in data set [3], the half-maximal inhibitory concentration (IC50) came to 28.7 ± 1.23 µM.

As for `O[C@](c1ccc(Br)cc1)(c1cccnc1)c1cc2ccccc2o1` [85R], the “Experimental pIC50” value in data set [6] is on record as 4.600.

As for `Cc1ccc2nc(-c3ccc(-c4nnc5n4N=C(c4ccc(F)cc4F)CS5)cc3)[nH]c2c1` [compound 82], the “Experimental pIC50” value in data set [6] is reported as 7.432.

As for `N#Cc1ccc(-n2cc(CO)c3ccccc32)cc1` [compound 111], in data set [6], the “Experimental pIC50” value is reported as 7.301.

Turning to `O=[N+]([O-])c1ccc(C(c2[nH]c3ccccc3c2CCNS(=O)(=O)c2ccc(C(F)(F)F)cc2)c2[nH]c3ccccc3c2CCNS(=O)(=O)c2ccc(C(F)(F)F)cc2)cc1` [compound 34], the “Experimental pIC50” value in data set [6] is given as 5.398.

With `O=S(=O)(NCCc1c(C(c2ccc(F)cc2)c2[nH]c3ccccc3c2CCNS(=O)(=O)c2ccc(C(F)(F)F)cc2)[nH]c2ccccc12)c1ccc(C(F)(F)F)cc1` [compound 42], the “Experimental pIC50” value in data set [6] was 5.357.

For `OCc1cn(-c2cccc(F)c2)c2ccccc12` [compound 110], the “Experimental pIC50” value in data set [6] is 7.086.

For the molecule `COc1ccc(S(=O)(=O)NCCc2c(C(c3ccccc3O)c3[nH]c4ccccc4c3CCNS(=O)(=O)c3ccc(OC)cc3)[nH]c3ccccc23)cc1` [compound 52], the “Experimental pIC50” value in data set [6] is given as 6.097.

On to `N#Cc1ccc(C(c2[nH]c3ccccc3c2CCNS(=O)(=O)c2ccc(F)cc2)c2[nH]c3ccccc3c2CCNS(=O)(=O)c2ccc(F)cc2)cc1` [compound 36], for which the “Experimental pIC50” value in data set [6] was 5.009.

With `N#Cc1ccc(C(c2[nH]c3ccccc3c2CCNS(=O)(=O)c2ccc(Cl)cc2)c2[nH]c3ccccc3c2CCNS(=O)(=O)c2ccc(Cl)cc2)cc1` [compound 35], in data set [6], the “Experimental pIC50” value is given as 5.260.

Regarding `Cc1ccc2cc(Cn3ccnc3)n(-c3ccccc3)c2c1` [compound 15], the “Experimental pIC50” value in data set [6] is 7.670.

For `CCn1cc([C@@H](c2ccc(F)cc2)n2ccnc2)c2cc(C#N)ccc21` [76R], in data set [6], the “Experimental pIC50” value is recorded as 6.495.

Take `OCc1cn(-c2ccccc2Cl)c2ccccc12` [compound 108]: the “Experimental pIC50” value in data set [6] was 7.268.

On to `O=S(=O)(NCCc1c[nH]c2ccccc12)c1ccccc1` [compound 65], for which the “Experimental pIC50” value in data set [6] is given as 6.699.

With `Cc1ccc(S(=O)(=O)Nc2ccc3[nH]ccc3c2)cc1` [compound 63], in data set [6], the “Experimental pIC50” value was 6.796.

As for `CCn1c2ccccc2c2cc(C(c3[nH]c4ccccc4c3CCNS(=O)(=O)c3ccccc3)c3[nH]c4ccccc4c3CCNS(=O)(=O)c3ccccc3)ccc21` [compound 58], in data set [6], the “Experimental pIC50” value is recorded as 5.409.

As for `Clc1ccccc1-n1cc(Cn2cncn2)c2ccccc21` [compound 113], in data set [6], the “Experimental pIC50” value was 5.456.

On to `O=[N+]([O-])c1ccc(C(c2[nH]c3ccccc3c2CCNS(=O)(=O)c2ccc(Br)cc2)c2[nH]c3ccccc3c2CCNS(=O)(=O)c2ccc(Br)cc2)cc1` [compound 32], for which the “Experimental pIC50” value in data set [6] is 5.569.

Regarding `CCn1cc([C@@H](c2ccc(Cl)cc2Cl)n2cncn2)c2cc(Br)ccc21` [120S], in data set [6], the “Experimental pIC50” value was 6.206.

Take `CCn1cc([C@@H](c2ccc(F)cc2)n2cncn2)c2cc(Br)ccc21` [119R]: the “Experimental pIC50” value in data set [6] was 6.016.

In the case of `Clc1ccccc1-n1cc(Cn2ccnc2)c2ccccc21` [compound 112], in data set [6], the “Experimental pIC50” value was 6.762.

Regarding `O=S(=O)(NCCc1c(C(c2ccc(C(F)(F)F)cc2)c2[nH]c3ccccc3c2CCNS(=O)(=O)c2ccc(Cl)cc2)[nH]c2ccccc12)c1ccc(Cl)cc1` [compound 44], the “Experimental pIC50” value in data set [6] is on record as 5.495.
